Measured values published in patent publication US10973863B2, “Method for regulating, preventing and/or treating pulmonary injury” (SINPHAR PHARMACEUTICAL CO., LTD., priority 2017, dated 2021).

Key:
active-form MMP-9 = test: Western blot: active-form MMP-9 expression in LPS-treated NR8383 cells; assay type: cell-based, rat; settings: 0.01 μg/mL LPS; 6.25, 12.5, 25 and 50 μg/mL; 24 hours
Description: Rat alveolar macrophage NR8383 cells were divided into six groups and separately cultivated with the following media for 24 hours: • (1) Control group: a macrophage growth medium containing 0.01 μg/mL LPS; • (2) Positive control group: a macrophage growth medium containing 0.01 μg/mL LPS and 1 μM Dex; and • (3) Extract A group (including four sub-groups): a macrophage growth medium containing 0.01 μg/mL LPS and the extract A provided by [preparation example A-2-2], wherein the extract A is present in the four sub-groups at a concentration of 6.25, 12.5, 25 and 50 μg/mL respectively.
Thereafter, the proteins in the cells of each group were extracted and then subjected to a Western blot to measure the expression level of pro-form MMP-9 (i.e., the zymogen form of MMP-9), active-form MMP-9 and MMP-12. The relative expression level of pro-form MMP-9, active-form MMP-9 and MMP-12 of each group was calculated by using the results of the control group as a basis (i.e., the expression level of control group was served as 1-fold).
Rat alveolar macrophage NR8383 cells were divided into ten groups and separately cultivated with the following media for 24 hours:
(1) Control group: a macrophage growth medium containing 0.01 μg/mL LPS;
(2) Positive control group: a macrophage growth medium containing 0.01 μg/mL LPS and 1 μM Dex; […]

[1] = test system: TGFβ-induced intracellular accumulation of collagen in myofibroblast WI38 cells; test: Picrosirius red staining: TGFβ-induced collagen accumulation in WI38 cells; assay type: cell-based; settings: Table 7, 1 ng/mL TGF-β, 24 hours
Excerpt: As indicated above, the hyperactive expression of MMPs will cause pulmonary injury. Under the most circumstances, the response mechanisms in animals will activate, for example, macrophages will secret TGF-β and TGF-β which can promote the lung fibroblasts to secret collagen, so that the damaged tissues can be recovered. However, the hypersecretion of collagen will also lead to lung fibrosis. To investigate whether FU-LING extracts and its active ingredients are effective in regulating, protecting and/or treating the pulmonary injury-related diseases such as lung fibrosis or not, the Picrosirius red (PSR) staining was conducted as a semi-quantification of collagen, so that the inhibitory rate of FU-LING extract and its active ingredients on the TGFβ-induced intracellular accumulation of collagen in myofibroblast WI38 cells can be determined.
Myofibroblast WI38 cells (purchased from ATCC, product no. CCL75™) were divided into ten groups and separately cultivated with the following media for 48 hours:
(1) Blank group: a myolibroblast growth medium;
(2) Control group: a myofibroblast growth medium containing 1 ng/mL TGF-β (purchased from R&D system);
(3) Positive control group: a myofibroblast growth medium containing 1 ng/mL TGF-β and 200 μg/mL Pirfenidone (abbreviated as “Pir”; purchased from Sigma-Aldrich);
(4) Extract A (including four sub-groups): a myofibroblast growth medium containing 1 ng/mL TGF-β and the extract A provided by [Preparation example A-2-2], wherein the extract A is present in the four sub-groups at a concentration of 12.5, 25, 50 and 100 μg/mL respectively; and
(5) Extract B (including three sub-groups): a myofibroblast growth medium containing 1 ng/ml, TGF-β and the extract B provided by [Preparation example A-2-3], wherein the extract B is present in the […] at a concentration of 12.5, 25 and 50 μg/mL respectively.
Thereafter, the media were replaced by methanol to fix the cells at a temperature of −20° C. for 1 to 2 hours. After that, the cells were washed with PBS, and then stained with 0.1% PSR staining agent (purchased from Sigma-Aldrich) at room temperature for 4 hours. The stained cells were washed with 0.1% acetic acid, and then lysed with 0.1N sodium hydroxide to provide a lysate. The OD540 (i.e., the absorbance at a wavelength of 540 nm) of the lysate was measured. OD540 value of each group represents the content of collagen in each group, reflecting the content of collagen in fibroblast WI38 cells under different circumstances (the relative content of collagen in each group was calculated by serving the result of blank group as 0% and serving the result of control group as 100%).
Myofibroblast WI38 cells were divided into twenty-eight groups and separately cultivated with the following media for 24 hours:
(1) Blank group: a myofibroblast growth medium;
(3) Positive control group; a myofibroblast growth medium containing 1 ng/mL TGF-β and 200 μg/mL Pirfenidone (abbreviated as “Pir”; purchased from Sigma-Aldrich);
(4) Extract C group (including five sub-groups): a myofibroblast growth medium containing 1 ng/mL TGF-β and the extract C provided by [preparation example A-3-2], wherein the extract C is present in the five sub-groups at a concentration of […], 6.25 and 12.5 μg/mL respectively;
(5) Extract D group (including five sub-groups): a myofibroblast growth medium containing 1 ng/mL TGF-β and the extract D provided by [preparation example A-4-2], wherein the extract D is present in the five sub-groups at a concentration of 0.78, 1.56, 3.13, 6.25 and 12.5 μg/mL respectively;
(6) Extract E group (including five sub-groups): a myofibroblast growth medium containing 1 ng/mL TGF-β and the extract E provided by [preparation example A-4-3], wherein the extract E is present in the five sub-groups at a concentration of 0.78, 1.56, 3.13, 6.25 and 12.5 μg/mL respectively; […]

SMILES: C=C(CC[C@@H](C(=O)O)[C@H]1[C@H](O)C[C@@]2(C)C3=CC[C@@H](C(=C)C)[C@](C)(CCC(=O)O)C3=CC[C@]12C)C(C)C [PAA, poricoic acid A]
- Inhibitory rate on active-form MMP-9 (highest over tested concentrations) (active-form MMP-9): up to 44%
- Relative content of collagen (%) ([1]; 6.25 μg/mL): 82%
- Relative content of collagen (%) ([1]; 12.5 μg/mL): 78%
- Relative content of collagen (%) ([1]; 25 μg/mL): 48%
- Relative content of collagen (%) ([1]; 50 μg/mL): 0%
- Relative content of collagen (%) ([1]; 100 μg/mL): 0%
